As a reminder, the IC50 is the concentration needed to halve the response being measured.

The subject of one series is GL261 cells. Put plainly: Cell growth inhibition assay (MTT). The series is classed as cell-based, murine. The essentials:
(§1)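 Cells in DMEM with 10% FBS attached for 24 h, then treated 72 h; MTT read-out. Single-point screen at 10 µM, IC50 from 10^−10 to 10^−2 M series in triplicate, three experiments; efflux sensitivity assessed with 10 µM verapamil.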

A further series concerns U87MG cells. Put plainly: Immunofluorescence of cellular microtubules (confocal microscopy). The series is classed as cell-based, human. Particulars: 24 h, 8 50 nM, 9 and 14 100 nM. On the procedure:
(§2) The 8 × 10^4 HeLa, MCF7, and U87 MG cells were seeded on 0.01% poly-L-lysine pre-coated square glass coverslips ([…]) deposited on 6-well plates (1 coverslip/well) and incubated in complete DMEM medium (see above) at 37 °C and 5% CO2 atmosphere for 24 h. Then, the culture medium was replaced by fresh complete DMEM, and cells were incubated in the presence or absence of selected compounds for 24 h. Untreated cells were used as negative controls. […] In that way, compounds with similar antiproliferative potencies were tested at the same concentrations. HeLa cells were treated with 200 nM of compounds 8 and 14 and 500 nM of compound 9; MCF7 cells were treated with 100 nM of compounds 8 and 14 and 500 nM of compound 9; and U87 MG cells were treated with 50 nM of compound 8 and 100 nM of compounds 9 and 14. After incubation, medium was removed and coverslips were washed three times with PBS, fixed in 4% formaldehyde in PBS for 10 min, permeabilized with 0.5% Triton X-100 (Sigma-Aldrich, St. Louis, MO, USA) in PBS for 90 s at 4 °C, and blocked with 10% BSA in PBS for 30 min. After four washes with PBS, the coverslips were incubated for 1 h with anti-α-tubulin mouse monoclonal antibody (Sigma-Aldrich, St. Louis, MO, USA), and diluted 1:200 in PBS containing 3% BSA. After four washes wish PBS, coverslips were incubated, in darkness, with fluorescent secondary antibody Alexa Fluor 488 goat anti-mouse IgG (Molecular Probes, Invitrogen, Eugenen, OR, USA), and diluted 1:400 in PBS containing 1% BSA for 1.5 h. After four washes with PBS, a drop of ProLong™ Gold Antifade Mountant containing DAPI (ThermoFisher, Waltham, MA, USA) was added for cell nuclei staining. Samples were analyzed via confocal microscopy using a LEICA SP5 microscope DMI-6000V model coupled to a LEICA LAS AF software computer.

The subject of another series is HeLa cells. Described as above. Particulars: 24 h, 8 and 14 200 nM, 9 500 nM. The series is classed as cell-based, human. On the procedure:
as §2

Series [1] deals with MCF7 cells. The series is described as above. The series is classed as cell-based, human. Particulars: MCF7, 24 h; 8 and 14 100 nM, 9 500 nM. On the procedure:
as §2

For series [2], the system named is HEK-293 cells. Put plainly: Lactate dehydrogenase (LDH) release assay. The series is classed as cell-based, human. Particulars: HEK-293, 72 h; for LDH release: 100 µM. On the procedure: CytoTox96® Non-Radioactive Cytotoxicity Assay kit (Promega, Madison, WI, USA) was used to measure the release of lactate dehydrogenase (LDH) by following the previously described method in [46]. […] After treatment, the supernatants were collected, and the intact attached cells were lysed using 0.1% (w/v) Triton X-100 in (0.9%) NaCl solution. Both the LDH released to culture media, as well as the LDH content within the cells, were determined spectrophotometrically at 490 nm on a 96-well plate reader (Infinite 200, Tecan, Salzburg, Austria) by following the manufacturer’s instructions. LDH release was defined by the ratio of LDH released/total LDH present in the cells, with the total LDH being 100%. All the samples were run in quadruplicate.

Series [3] deals with HT-29 cells. Put plainly: Cell growth inhibition assay (MTT). The format is cell-based, human. The essentials: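 Following overnight (24 h) attachment, cultures received serial compound concentrations from 10^−10 to 10^−2 M and were incubated 72 h before MTT viability measurement. Where efflux-pump sensitivity was tested, IC50 was redetermined with 10 µM verapamil present.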

For a further series, the system named is HepG2 cells. As to the kind of experiment: Cell growth inhibition assay (MTT). The series is classed as cell-based, human. The gist of the method: as §1
The test system of series [4] is MCF7 cells. Put plainly: Cell growth inhibition assay (MTT). The format is cell-based, human. The conditions noted are these: for IC50: MTT, 72 h after drug exposure. The gist of the method: as §1
For series [5], the system named is HT-29 cells. As to the kind of experiment: Cell growth inhibition (MTT) in the presence of 10 µM verapamil (sensitivity to MDR efflux pumps). The format is cell-based, human. The conditions noted are these: 10 µM verapamil (P-gp/MDR1 inhibitor).
The test system of series [6] is HEK-293 cells. As to the kind of experiment: Cell growth inhibition assay (MTT), non-tumorigenic cells. The series is classed as cell-based, human. The conditions noted are these: non-tumorigenic cell line. The gist of the method: as §1

For `COc1ccc2nc(N(C=O)Cc3cccnc3)sc2c1` [Compound 14, N-(6-methoxybenzo[d]thiazol-2-yl)-N-(pyridin-3-ylmethyl)formamide], the IC50 with GL261 cells (Mus musculus, GL261, 72 h after drug exposure) amounted to 35 nM; in the series with HT-29 cells [3] (Homo sapiens, HT-29, 72 h after drug exposure), 322 nM; with HepG2 cells (Homo sapiens, HepG2, 72 h after drug exposure) it was 83 nM; in the series with MCF7 cells [4] (Homo sapiens, MCF7), 15 nM; with HT-29 cells [5], 307 nM; with HEK-293 cells [6] (Homo sapiens, HEK293, 72 h after drug exposure), 8220 nM. The “effect on the microtubule network” value in the series on U87MG cells, in the series with HeLa cells and in the series with MCF7 cells [1] was “disruption of the microtubule network” throughout. This compound returned an LDH release in the series on HEK-293 cells [2] of roughly 30%. Further, the “cytotoxic effect by LDH release (in words)” value with HEK-293 cells [2] (between 0.1 and 1 µM) is given as “No significant cytotoxic effects”. In addition, in the series with MCF7 cells [4] (HEK-293 versus MCF7), the “selectivity index against MCF7” value is roughly 500.
On to `CCNC(=O)N(Cc1cccnc1)c1nc2ccc(OC)cc2s1` [Compound 8], for which the IC50 with GL261 cells (72 h after drug exposure) was found to be 25 nM; in the series on HT-29 cells [3] (72 h after drug exposure), 208 nM; in the series on HepG2 cells (72 h after drug exposure), 94 nM; in the series on MCF7 cells [4] it was 34 nM; in the series with HT-29 cells [5] it was 215 nM; in the series on HEK-293 cells [6] (72 h after drug exposure) it was 7970 nM. For the same compound, the “effect on the microtubule network” value in the series on U87MG cells, in the series with HeLa cells and with MCF7 cells [1] was “disruption of the microtubule network” throughout. The LDH release in the series on HEK-293 cells [2] is reported as roughly 30%.
